According to paper PMC11668362, “On the function of TRAP substrate-binding proteins: the isethionate-specific binding protein IseP” (Biochemical Journal, 2024):

The molecules below were run against T1, OaIseP (isethionate-specific TRAP substrate-binding protein IseP) (Oleidesulfovibrio alaskensis, UniProt Q312S0) (assay: X-ray crystal structure ([…] Å), open conformation; no significant DSF shift at […]). Conditions: not given.
Design: gene dctP
Target sequence in this assay (Q312S0 24-336 limits assumed): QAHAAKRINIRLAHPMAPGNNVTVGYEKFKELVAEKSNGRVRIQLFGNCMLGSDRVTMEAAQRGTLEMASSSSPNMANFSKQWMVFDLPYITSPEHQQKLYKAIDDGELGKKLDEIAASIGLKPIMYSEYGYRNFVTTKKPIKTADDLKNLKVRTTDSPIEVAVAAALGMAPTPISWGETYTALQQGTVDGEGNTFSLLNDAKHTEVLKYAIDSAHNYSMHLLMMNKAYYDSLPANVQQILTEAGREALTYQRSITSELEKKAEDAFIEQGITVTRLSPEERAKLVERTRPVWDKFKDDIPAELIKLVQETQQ

For `O=S(=O)(O)CCN1CCN(CCO)CC1` [HEPES, 4-(2-hydroxyethyl)-1-piperazineethanesulfonic acid], which “X-ray crystal structure (1.89 Å), open conformation; no significant DSF shift at” value is on record?
Its value is “we were able to confidently model HEPES and MES buffer constituents from the crystallisation conditions into the densities”.

Molecular target: T1, OaIseP (isethionate-specific TRAP substrate-binding protein IseP)
Test: as above
Design: gene dctP
Conditions: not given
Remark: another data set of the same source
Target sequence in this assay (Q312S0 24-336 limits assumed): as above

Which “X-ray crystal structure (1.65 Å), open conformation; no significant DSF shift at” value does the source give for `O=S(=O)(O)CCN1CCOCC1` [MES, 2-(N-morpholino)ethanesulfonic acid] here?
The value was “In both HEPES- and MES-bound structures, the sulfonate groups form a salt bridge to Arg177”.

These molecules were tested against T1, OaIseP (isethionate-specific TRAP substrate-binding protein IseP) (assay: not given). Conditions: PM4A Biolog screen, compound concentration not disclosed; binder.
Design: gene dctP; without the native signal peptide; N-terminal His-tag removed with HRV 3C protease; DSF thermal shift with SYPRO Orange, PM4A Biolog compound screen, change of derivative melting temperature
Target sequence in this assay (Q312S0 24-336): as the sequence (Q312S0 24-336 limits assumed) above

How did the “ΔTmD (°C)” value turn out when `NC(=O)CCCCC1CCSS1` (racemic) [DL-lipoamide] was run?
Its value is 0.60 ± 0.38 °C.

How did the “ΔTmD (°C)” value turn out when `N[C@@H](CS)C(=O)NCC(=O)O` [Cys-Gly] was run?
The value was 1.14 ± 0.17 °C.

For `N[C@H](CS)C(=O)O` [D-cysteine], which “ΔTmD (°C)” value is on record?
Its value is 1.14 ± 0.17 °C.

With `O=P(O)(O)O[C@H]1O[C@H](CO)[C@@H](O)[C@H](O)[C@H]1O` [D-glucose-1-phosphate] as the molecule, how does the “ΔTmD (°C)” value read?
Its value is 0.92 ± 0.26 °C.

For `O=C[C@H](O)[C@@H](O)[C@H](O)[C@H](O)COP(=O)(O)O` [D-glucose-6-phosphate], which “ΔTmD (°C)” value is on record?
The value was -0.85 ± 0.37 °C.

For `O=P(O)(O)OC1O[C@H](CO)[C@@H](O)[C@H](O)[C@@H]1O` (stereo partly drawn) [D-mannose-1-phosphate], which “ΔTmD (°C)” value is on record?
The value was 0.69 ± 0.31 °C.

For `O=P(O)(O)OC[C@H]1OC(O)[C@@H](O)[C@@H](O)[C@@H]1O` (stereo partly drawn) [D-mannose-6-phosphate], which “ΔTmD (°C)” value is on record?
The value was -0.09 ± 0.47 °C.

How did the “ΔTmD (°C)” value turn out when `CSCC[C@@H](N)C(=O)O` [D-methionine] was run?
Its value is -0.62 ± 0.38 °C.

`CSCC[C@H](NC(=O)CN)C(=O)O` [Gly-Met] was tested. Which “ΔTmD (°C)” value did it give?
Its value is -0.01 ± 0.18 °C.

`N[C@@H](CS(=O)(=O)O)C(=O)O` [L-cysteic acid] was tested. Which “ΔTmD (°C)” value did it give?
The value was 0.11 ± 0.28 °C.

With `N[C@@H](CS(=O)O)C(=O)O` [L-cysteine sulfinate] as the molecule, how does the “ΔTmD (°C)” value read?
Its value is 0.53 ± 0.00 °C.

Which “ΔTmD (°C)” value does the source give for `N[C@@H](CS)C(=O)O` [L-cysteine] here?
Its value is -0.68 ± 0.11 °C.

`N[C@@H](CSCSC[C@H](N)C(=O)O)C(=O)O` [L-djenkolic acid] was tested. Which “ΔTmD (°C)” value did it give?
Its value is -0.32 ± 0.28 °C.

With `CS(=O)(=O)CC[C@H](N)C(=O)O` [L-methionine sulfone] as the molecule, how does the “ΔTmD (°C)” value read?
Its value is 0.44 ± 0.13 °C.

For `C[S+]([O-])CC[C@H](N)C(=O)O` (stereo partly drawn) [L-methionine sulfoxide], which “ΔTmD (°C)” value is on record?
The value was 0.29 ± 0.11 °C.

Which “ΔTmD (°C)” value does the source give for `CSCC[C@H](N)C(=O)O` [L-methionine] here?
Its value is -0.92 ± 0.37 °C.

For `CC(=O)N[C@@H](CS)C(=O)O` [N-acetyl-L-cysteine], which “ΔTmD (°C)” value is on record?
Its value is -0.64 ± 0.24 °C.

With `N[C@H](COP(=O)(O)O)C(=O)O` [O-phospho-D-serine] as the molecule, how does the “ΔTmD (°C)” value read?
The value was 0.05 ± 0.42 °C.

Which “ΔTmD (°C)” value does the source give for `N[C@H](Cc1ccc(OP(=O)(O)O)cc1)C(=O)O` [O-phospho-D-tyrosine] here?
Its value is 0.87 ± 0.11 °C.

`C[C@@H](OP(=O)(O)O)[C@H](N)C(=O)O` [O-phospho-L-threonine] was tested. Which “ΔTmD (°C)” value did it give?
The value was -0.62 ± 0.28 °C.

For `N[C@@H](Cc1ccc(OP(=O)(O)O)cc1)C(=O)O` [O-phospho-L-tyrosine], which “ΔTmD (°C)” value is on record?
The value was -0.73 ± 0.33 °C.

How did the “ΔTmD (°C)” value turn out when `CSC[C@H](N)C(=O)O` [S-methyl-L-cysteine] was run?
Its value is -0.41 ± 0.48 °C.

For `O=P(O)(O)OC(CO)CO` [b-glycerol phosphate], which “ΔTmD (°C)” value is on record?
Its value is -0.30 ± 0.29 °C.

`CCCCS(=O)(=O)O` [butane sulfonate] was tested. Which “ΔTmD (°C)” value did it give?
The value was 0.41 ± 0.46 °C.

How did the “ΔTmD (°C)” value turn out when `NC(=O)OP(=O)(O)O` [carbamoyl phosphate] was run?
Its value is -0.49 ± 0.28 °C.

`N[C@@H](CCSC[C@H](N)C(=O)O)C(=O)O` [cystathionine] was tested. Which “ΔTmD (°C)” value did it give?
Its value is 0.61 ± 0.21 °C.

Which “ΔTmD (°C)” value does the source give for `NCCS` [cysteamine] here?
The value was 0.35 ± 0.00 °C.

`N[C@@H](CCC(=O)N[C@@H](CS)C(=O)NCC(=O)O)C(=O)O` [glutathione] was tested. Which “ΔTmD (°C)” value did it give?
Its value is -0.67 ± 0.37 °C.

Which “ΔTmD (°C)” value does the source give for `NCCS(=O)O` [hypotaurine] here?
The value was -0.68 ± 0.46 °C.

How did the “ΔTmD (°C)” value turn out when `O=P(O)(O)O[C@H]1[C@H](OP(=O)(O)O)[C@@H](OP(=O)(O)O)[C@H](OP(=O)(O)O)[C@@H](OP(=O)(O)O)[C@H]1OP(=O)(O)O` [inositol hexaphosphate] was run?
The value was 0.46 ± 0.33 °C.

For `O=S(=O)(O)CCO` [isethionate, 2-hydroxyethane sulfonate], which “ΔTmD (°C)” value is on record?
The value was 6.52 ± 0.18 °C.

With `N[C@@H](CSC[C@H](N)C(=O)O)C(=O)O` [lanthionine] as the molecule, how does the “ΔTmD (°C)” value read?
The value was -0.46 ± 0.10 °C.

How did the “ΔTmD (°C)” value turn out when `CS(=O)(=O)O` [methane sulfonic acid] was run?
Its value is 0.23 ± 0.28 °C.

With `CN(CC(=O)O)C(=N)NP(=O)(O)O` [phospho-creatine] as the molecule, how does the “ΔTmD (°C)” value read?
Its value is 0.41 ± 0.40 °C.

Which “ΔTmD (°C)” value does the source give for `O=C(O)COP(=O)(O)O` [phospho-glycolic acid] here?
The value was 0.31 ± 0.21 °C.

For `C=C(OP(=O)(O)O)C(=O)O` [phosphoenolpyruvate], which “ΔTmD (°C)” value is on record?
The value was -0.63 ± 0.24 °C.

`O=S1(=O)CCCC1` [tetramethylene sulfone] was tested. Which “ΔTmD (°C)” value did it give?
Its value is 0.23 ± 0.11 °C.

How did the “ΔTmD (°C)” value turn out when `NC(N)=S` [thiourea] was run?
The value was -0.73 ± 0.31 °C.

Each molecule was assayed against T1, OaIseP (isethionate-specific TRAP substrate-binding protein IseP) (assay: biochemical). Conditions: not given.
Design: gene dctP
Target sequence in this assay (Q312S0 24-336 limits assumed): as above

With `O=S(=O)(O)CCO` [isethionate, 2-hydroxyethane sulfonate] as the molecule, how does the Kd read?
The Kd was 950 nM.
